According to patent publication US20220233133A1, “HUMAN TACTILE PREPULSE […]” (President and Fellows of Harvard College, priority 2019, published 2022):

How the values were obtained:
[1] = test system: Mecp2 conditional mutant mice; experiment: Tactile PPI performance in Mecp2 conditional mutant mice; format: in vivo; settings: 30 minutes following administration of 2 mg/kg, versus saline
Procedure: (§1) Tactile PPI performance in Mecp2 or Shank3 conditional mutant mice, and their control littermates, 30 minutes following administration of either saline or 2 mg/kg compound 5.

[2] = test system: Shank3 conditional mutant mice; experiment: Tactile PPI performance in Shank3 conditional mutant mice; format: in vivo; settings: 30 minutes following administration of 2 mg/kg, versus saline
Procedure: as §1

ASD mouse models = settings: range of ASD mouse models (Orefice et al., 2019, Cell 178, 867-886); cited from earlier work

Row | SMILES | hairy skin hypersensitivity (tactile PPI performance) [1] | hairy skin hypersensitivity (tactile PPI performance) [2] | anxiety (ASD mouse models)
1 | NC1C=C(C(=O)O)CCC1 (stereo not drawn) [compound 5, 3-aminocyclohex-1-ene-1-carboxylic acid] | reduces hairy skin hypersensitivity | reduces hairy skin hypersensitivity | –
2 | Nc1[nH]c(=O)nc2nc[nH]c12 [isoguanine] | – | – | useful to reduce
